Like-named read-outs stand apart in the source and are kept apart here.

For orientation: IC50 means the concentration at which inhibition is half-maximal. Higher therefore signals weaker potency. In general, AUC refers to concentration integrated over time. What is called Cmax is the maximum level reached in the sampled fluid or tissue.

In data set [1] the test system is HCT116 cells. The data set can be described thus: HCT116 cell anti-proliferation assay. Particulars: 6 days, Cell Titer-Glo. It counts as cell-based. The method, then: HCT116 (ATCC, CCL-247) cells were cultured in McCoy's 5a complete medium (Gibco, 12330-031) containing 10% fetal bovine serum (Gibco, 10099-141C), 100 U penicillin and 100 μg/mL streptomycin (Gibco, 15140-122). The Promega kit Cell Titer-Glo (Promega: G7572) was used in this method for test.
HCT116 cells were cultured in T75 cell flasks (Corning, 430641) and the cells were placed in a 37° C., 5% CO2 incubator. Cells were passaged when reaching a cell density of 70%-80%, approximately twice per week. To perform the experiment, the test compounds were dissolved in DMSO to prepare a 10 mM stock solution, and the test compounds were added to the 384-well cell test plate (Corning, 3765) at the predetermined concentration (19.5 nM-[…]) using ECHO. […] cells were digested and 150 cells (60 μL medium) were seeded per well in the test plate. The 384-well plate was then centrifuged at 500 rpm for 1 minute, and then placed in a 37° C., 5% CO2 incubator for 6 days of cultivation. Six days later, the cell culture plate was equilibrated for 10 minutes at room temperature, 25 μL of Cell Titer-Glo was added to each well, and the mixture was shaken and mixed well and let stand for 5 minutes. The luminescence values for samples in various wells were read using a microplate reader in Luminescence mode.
The percentage of inhibition of cell proliferation by the test compound at each concentration was calculated by comparing with the values of the control group (0.2% DMSO). The IC50 values of the compounds were obtained by concentration-inhibition rate nonlinear regression analysis of the test compounds using GraphPad Prism 9.
For orientation: ATP-based viability assays read luminescence as a measure of living cells.

Data set [2] has as its target KIF18A (Homo sapiens (Human), UniProt Q8NI77). The data set can be described thus: KIF18A ATPase activity under tubulin stimulation (ADP-Glo assay). Particulars: KIF18A 30 nM, ATP 150 μM, pig microtubules. The data set is classed as biochemical. A general note: ADP-Glo first removes unused ATP, then detects ADP through luciferase.
The nature of data set [3]: PK study in ICR mice. It counts as in vivo, mouse. Particulars: plasma, route and dose not given. An outline of the steps: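 Fasted ICR mice (3/group) dosed intravenously or by oral gavage; plasma sampled up to 24 h. Plasma levels measured by LC-MS/MS after protein precipitation. T½, AUC0-t, CL, Vss and F derived by noncompartmental analysis.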
Setting [4] is: both sexes, mouse, read-out: AUC.
Setting [5] is: both sexes, mouse, read-out: Cmax.

Chain of KIF18A (Q8NI77 whole entry): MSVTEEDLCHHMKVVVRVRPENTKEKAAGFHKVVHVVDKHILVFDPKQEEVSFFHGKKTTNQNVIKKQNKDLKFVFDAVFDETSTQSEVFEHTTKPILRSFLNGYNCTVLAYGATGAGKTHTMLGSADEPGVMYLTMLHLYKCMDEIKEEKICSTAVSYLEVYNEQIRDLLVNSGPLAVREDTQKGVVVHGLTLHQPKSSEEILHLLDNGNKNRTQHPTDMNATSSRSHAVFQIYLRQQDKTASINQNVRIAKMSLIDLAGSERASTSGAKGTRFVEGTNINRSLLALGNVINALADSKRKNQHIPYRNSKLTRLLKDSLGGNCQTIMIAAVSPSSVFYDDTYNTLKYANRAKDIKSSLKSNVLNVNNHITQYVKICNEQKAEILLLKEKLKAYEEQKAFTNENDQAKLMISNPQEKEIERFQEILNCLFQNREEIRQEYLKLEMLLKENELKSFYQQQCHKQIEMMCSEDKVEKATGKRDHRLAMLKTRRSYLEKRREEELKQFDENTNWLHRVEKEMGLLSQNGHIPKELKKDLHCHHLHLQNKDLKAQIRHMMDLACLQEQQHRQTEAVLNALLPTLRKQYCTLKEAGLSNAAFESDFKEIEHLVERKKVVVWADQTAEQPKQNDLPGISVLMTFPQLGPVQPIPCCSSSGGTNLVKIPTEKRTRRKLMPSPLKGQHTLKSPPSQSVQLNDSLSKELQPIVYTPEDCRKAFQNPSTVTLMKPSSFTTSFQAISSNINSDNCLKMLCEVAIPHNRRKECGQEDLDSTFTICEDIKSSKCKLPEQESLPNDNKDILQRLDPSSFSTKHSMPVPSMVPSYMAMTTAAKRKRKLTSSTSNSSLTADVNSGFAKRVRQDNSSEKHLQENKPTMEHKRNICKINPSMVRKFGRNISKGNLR
Chain of KIF18A (P02550 whole entry partner): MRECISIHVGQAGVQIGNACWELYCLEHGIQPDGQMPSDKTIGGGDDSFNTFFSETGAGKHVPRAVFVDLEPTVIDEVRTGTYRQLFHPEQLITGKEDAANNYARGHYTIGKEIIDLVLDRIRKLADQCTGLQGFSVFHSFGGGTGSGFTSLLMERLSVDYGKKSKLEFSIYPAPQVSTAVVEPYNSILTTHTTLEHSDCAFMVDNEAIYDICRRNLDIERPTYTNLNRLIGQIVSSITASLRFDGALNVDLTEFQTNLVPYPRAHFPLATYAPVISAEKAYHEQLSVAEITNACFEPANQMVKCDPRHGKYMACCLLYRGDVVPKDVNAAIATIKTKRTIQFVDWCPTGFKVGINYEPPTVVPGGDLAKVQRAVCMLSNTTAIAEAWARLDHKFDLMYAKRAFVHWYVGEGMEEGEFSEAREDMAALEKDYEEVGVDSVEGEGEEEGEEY
Chain of KIF18A (P02554 whole entry partner): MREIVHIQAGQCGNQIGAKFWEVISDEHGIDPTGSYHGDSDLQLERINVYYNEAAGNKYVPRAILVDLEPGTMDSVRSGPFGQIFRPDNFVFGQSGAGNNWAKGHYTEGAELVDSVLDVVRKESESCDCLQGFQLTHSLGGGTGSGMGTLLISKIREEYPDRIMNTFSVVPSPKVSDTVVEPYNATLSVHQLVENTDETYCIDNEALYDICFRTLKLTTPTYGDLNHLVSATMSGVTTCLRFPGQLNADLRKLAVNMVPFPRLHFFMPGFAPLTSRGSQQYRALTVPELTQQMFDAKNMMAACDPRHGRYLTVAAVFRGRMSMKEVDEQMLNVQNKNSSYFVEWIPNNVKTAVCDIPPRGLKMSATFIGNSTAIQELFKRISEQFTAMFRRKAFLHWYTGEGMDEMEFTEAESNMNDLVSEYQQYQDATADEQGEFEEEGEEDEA

In the case of `CC1Cn2c(cc3c(NC(=O)c4ccc(NS(=O)(=O)CCO)cc4N4CCC5(CC4)CC5)cccc32)C(C)O1` (single isomer, unassigned) [Compound 312-P2A, N-(1,3-dimethyl-3,4-dihydro-1H-[1,4]oxazino[4,3-a]indol-9-yl)-4-((2-hydroxyethyl)sulfonamido)-2-(6-azaspiro[2.5]oct-6-yl)benzamide], the IC50 in data set [1] was 6700 nM; in data set [2] it was ≤ 50 nM.
With `CC1Cn2c(cc3c(NC(=O)c4ccc(NS(=O)(=O)CCO)cc4N4CCC5(CC4)CC5)cccc32)C(C)O1` (single isomer, unassigned) [Compound 312-P3, N-(1,3-dimethyl-3,4-dihydro-1H-[1,4]oxazino[4,3-a]indol-9-yl)-4-((2-hydroxyethyl)sulfonamido)-2-(6-azaspiro[2.5]oct-6-yl)benzamide], the IC50 in data set [1] (Homo sapiens, HCT-116, 144 h) was > 10000 nM; in data set [2], 50 to 500 nM. In addition, the area under the curve (AUC) in data set [3] (setting [4]) is 32400 ng·h/mL. Moreover, the Cmax in data set [3] (setting [5]) is 2980 ng/mL.
As to `COC1c2cc3c(NC(=O)c4ccc(NS(=O)(=O)CCO)cc4N4CCC5(CC4)CC5)cccc3n2CCC1(F)F` (single isomer, unassigned) [Example 340-P2], the results for the IC50 in data set [1] and in data set [2] were 8500 nM and ≤ 50 nM, respectively.
`CC1(C)Cn2c(nc3c(NC(=O)c4ccc(NS(=O)(=O)CCO)cc4N4CCC5(CC4)CC5)cccc32)CO1` [Compound 391, N-(3,3-dimethyl-3,4-dihydro-1H-benzo[4,5]imidazo[2,1-c][1,4]oxazin-9-yl)-4-((2-hydroxyethyl)sulfonamido)-2-(6-azaspiro[2.5]octan-6-yl)benzamide]: the IC50 was > 10000 nM in data set [1] (Homo sapiens, HCT-116, 144 h) and 50 to 500 nM in data set [2]. The AUC in data set [3] (setting [4]) is 38000 ng·h/mL. The Cmax in data set [3] (setting [5]) turned out to be 4370 ng/mL.
For `CC1(C)Cn2c(cc3c(NC(=O)c4ccc(NS(=O)(=O)CCO)cc4N4CCC5(CC4)CC5)ccc(C#N)c32)CO1` [Compound 392, N-(6-cyano-3,3-dimethyl-3,4-dihydro-1H-[1,4]oxazino[4,3-a]indol-9-yl)-4-((2-hydroxyethyl)sulfonamido)-2-(6-azaspiro[2.5]oct-6-yl)benzamide] the same measures were > 10000 nM, ≤ 50 nM, 50800 ng·h/mL and 5080 ng/mL.
On the same counts, the results for `CC1(C)Cn2c(cc3c(NC(=O)c4ccc(NS(=O)(=O)CCO)cc4N4CCC(=C(F)F)CC4)ccc(C#N)c32)CO1` [Compound 393, N-(6-cyano-3,3-dimethyl-3,4-dihydro-1H-[1,4]oxazino[4,3-a]indol-9-yl)-2-(4-(difluoromethylene)piperidin-1-yl)-4-((2-hydroxyethyl)sulfonamido)benzamide] are > 10000 nM, 50 to 500 nM, 22300 ng·h/mL and 3840 ng/mL.
On the same counts, the results for `CC1(C)Cn2c(nc3c(NC(=O)c4ccc(NS(=O)(=O)CCO)cc4N4CCC(=C(F)F)CC4)cccc32)CO1` [Compound 394, 2-(4-(difluoromethylene)piperidin-1-yl)-N-(3,3-dimethyl-3,4-dihydro-1H-benzo[4,5]imidazo[2,1-c][1,4]oxazin-9-yl)-4-((2-hydroxyethyl)sulfonamido)benzamide] are > 10000 nM, ≤ 50 nM, 47800 ng·h/mL and 4220 ng/mL.
Consider `CC1(C)OCCn2c1cc1c(NC(=O)c3ccc(NS(=O)(=O)CCO)cc3N3CCC(=C(F)F)CC3)cccc12` [Compound 395, 2-(4-(difluoromethylene)piperidin-1-yl)-N-(1,1-dimethyl-3,4-dihydro-1H-[1,4]oxazino[4,3-a]indol-9-yl)-4-((2-hydroxyethyl)sulfonamido)benzamide], for which the IC50 in data set [1] (Homo sapiens, HCT-116, 144 h) is > 10000 nM; in data set [2], ≤ 50 nM.
For the compound `O=C(Nc1cccc2c1cc1n2CC2CCC1O2)c1ccc(NS(=O)(=O)CCO)cc1N1CCC(=C(F)F)CC1` (stereo not shown) [Compound 398, 2-(4-(difluoromethylene)piperidin-1-yl)-4-((2-hydroxyethyl)sulfonamido)-N-(7,8,9,10-tetrahydro-6H-7,10-epoxyazeto[1,2-a]indol-1-yl)benzamide], the IC50 was > 10000 nM in data set [1] and 50 to 500 nM in data set [2]. The compound also registered an AUC in data set [3] of 6992 ng·h/mL. Moreover, the Cmax in data set [3] was 1410 ng/mL.
`COc1ccc(NC(=O)c2ccc(NS(=O)(=O)CCO)cc2N2CCC(=C(F)F)CC2)c2cc3n(c12)CCOC3` [Compound 405, 2-(4-(difluoromethylene)piperidin-1-yl)-4-((2-hydroxyethyl)sulfonamido)-N-(6-methoxy-3,4-dihydro-1H-[1,4]oxazinyl[4,3-a]indol-9-yl)benzamide]: in data set [1], the 50% inhibitory concentration (IC50) is > 10000 nM. Further, the half-maximal inhibitory concentration (IC50) in data set [2] is ≤ 50 nM. In data set [3], the AUC stood at 27572 ng·h/mL and the Cmax is reported as 4205 ng/mL.
For `Nc1cc(NS(=O)(=O)CCO)cc(N2CCC3(CC2)CC3)c1C(=O)Nc1cccc(N2CCC(F)(F)CC2)c1` [Example 1, 2-amino-N-(3-(4,4-difluoropiperidin-1-yl)phenyl)-4-((2-hydroxyethyl)sulfonamide)-6-(6-azaspiro[2.5]octan-6-yl)benzamide], the IC50 in data set [2] is ≤ 50 nM.
Regarding `CNc1cc(NS(=O)(=O)CCO)cc(N2CCC3(CC2)CC3)c1C(=O)Nc1cc(C)nc(N2CCC(F)(F)CC2)n1` [Example 4, N-(2-(4,4-difluoropiperidin-1-yl)-6-methylpyrimidin-4-yl)-4-(2-hydroxyethylsulfonamide)-2-methylamino-6-(6-azaspiro[2.5]octan-6-yl)benzamide], the half-inhibitory concentration (IC50) in data set [1] is 2600 nM; in data set [2], 50 to 500 nM.
For the compound `O=C(Nc1cccc2c1cc1n2CCOC1)c1ccc(NS(=O)(=O)CCO)cc1N1CCC2(CC1)CC2` [Example 235, N-(3,4-dihydro-1H-[1, 4]oxazino[4,3-a]indol-9-yl)-4-(2-hydroxyethylsulfonamido)-2-(6-azaspiro[2.5]octan-6-yl)benzamide], the IC50 in data set [1] (Homo sapiens, HCT-116, 144 h) was > 10000 nM; in data set [2] it was ≤ 50 nM. The AUC in data set [3] (setting [4]) was found to be 5980 ng·h/mL. For the same compound, the Cmax in data set [3] (setting [5]) worked out at 2990 ng/mL.
Regarding `O=C(Nc1ccc(F)c2c1nc1n2CCOC1)c1ccc(NS(=O)(=O)CCO)cc1N1CCC2(CC1)CC2` [Example 308, N-(6-fluoro-3,4-dihydro-1H-benzo[4,5]imidazo[2,1-c][1,4]oxazin-9-yl)-4-((2-hydroxyethyl)sulfonamido)-2-(6-azaspiro[2.5]octan-6-yl)benzamide], the IC50 is > 10000 nM in data set [1] (Homo sapiens, HCT-116, 144 h) and ≤ 50 nM in data set [2]. Further, the AUC in data set [3] (setting [4]) came to 5650 ng·h/mL. The Cmax in data set [3] (setting [5]) came out at 1100 ng/mL.
For `N#Cc1ccc(NC(=O)c2ccc(NS(=O)(=O)CCO)cc2N2CCC3(CC2)CC3)c2cc3n(c12)CCOC3` [Example 310, N-(6-cyano-3,4-dihydro-1H-[1,4]oxazino[4,3-a]indol-9-yl)-4-((2-hydroxyethyl)sulfonamido)-2-(6-azaspiro[2.5]oct-6-yl)benzamide] the same measures were 9000 nM, ≤ 50 nM, 12600 ng·h/mL and 3030 ng/mL.
Take `O=C(Nc1cccc2c1cc1n2CCOC1)c1ccc(NS(=O)(=O)CCO)cc1N1CCC(=C(F)F)CC1` [Example 319, 2-(4-difluoromethylene)piperidin-1-yl-N-(3,4-dihydro-1H-[1,4]oxazino[4,3-a]indol-9-yl)-4-((2-hydroxyethyl)sulfonamide) benzamide]: the IC50 in data set [1] is > 10000 nM; in data set [2], ≤ 50 nM. The compound also displayed an AUC in data set [3] of 16534 ng·h/mL. Also, the Cmax in data set [3] was found to be 3717 ng/mL.
Take `O=C(Nc1ccc(F)c2c1cc1n2CCOC1)c1ccc(NS(=O)(=O)CCO)cc1N1CCC(=C(F)F)CC1` [Example 321, 2-(4-(difluoromethylene)piperidin-1-yl)-N-(6-fluoro-3,4-dihydro-1H-[1,4]oxazino[4,3-a]indol-9-yl)-4-((2-hydroxyethyl)sulfonamido)benzamide]: the IC50 is > 10000 nM in data set [1] (Homo sapiens, HCT-116, 144 h) and ≤ 50 nM in data set [2]. The AUC in data set [3] (setting [4]) is 16000 ng·h/mL. The Cmax in data set [3] (setting [5]) is 4140 ng/mL.
Consider `N#Cc1ccc(NC(=O)c2ccc(NS(=O)(=O)CCO)cc2N2CCC(=C(F)F)CC2)c2cc3n(c12)CCOC3` [Example 364, N-(6-cyano-3,4-dihydro-1H-[1,4]oxazino[4,3-a]indol-9-yl)-2-(4-(difluoromethylene)piperidin-1-yl)-4-((2-hydroxyethyl)sulfonamido)benzamide], for which the IC50 in data set [1] (Homo sapiens, HCT-116, 144 h) is 8200 nM; in data set [2], ≤ 50 nM.
As for `CC1(O)CCCn2c1cc1c(NC(=O)c3ccc(NS(=O)(=O)CCO)cc3N3CCC4(CC3)CC4)cccc12` (stereo not shown) [Example 372], the IC50 in data set [1] was > 10000 nM; in data set [2] it was ≤ 50 nM.
In turn, `CC1(C)Cn2c(cc3c(NC(=O)c4ccc(NS(=O)(=O)CCO)cc4N4CCC5(CC4)CC5)ccc(OC(F)F)c32)CO1` [Example 523] returned an IC50 in data set [2] of 50 to 500 nM. Moreover, in data set [3], the AUC turned out to be 99384 ng·h/mL and the Cmax worked out at 7088 ng/mL.
